From patent US20250026769A1, “PAPD5 INHIBITORS AND METHODS OF USE THEREOF” (The Children's Medical Center Corporation, priority 2021, published 2025)
Read-outs that look alike come from different tables or passages of the source.

Experiments:
[1] = tested on: TERC 3′ end processing in DC patient iPSCs; test: TERC 3′ end processing by RACE in DC patient / PARN-mutant iPSCs; format: cell-based, human; settings: Homo sapiens, iPSC, read-out: iPSC-based RACE activity
Procedure, shortened: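 Activity binned by concentration giving effect in DC patient iPSCs: "+" at 1 μM, "++" above 1 nM and below 1 μM, "+++" below 1 nM; ND, not determined.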

[2] = tested on: TERC 3′ end processing in primary CD34+ human hematopoietic stem and progenitor cells (HSPCs); test: TERC 3′ end processing (RACE) in CRISPR/Cas9-engineered PARN-deficient primary CD34+ HSPCs; format: cell-based; settings: for TERC 3′ end processing by RACE at 100 nM: day 5 (FIG. 40B); for TERC 3′ end processing by RACE at 1 μM: day 5 (FIG. 40A)
Source text: Example 167—Restoration of TERC 3′ end processing in primary CD34+ human hematopoietic stem and progenitor cells (HSPCs). To determine the efficacy of exemplified compounds in a disease-relevant stem cell population, we employed a highly-efficient CRISPR-Cas9 ribonucleoprotein transduction strategy to disrupt the PARN gene in primary human CD34+ hematopoietic stem and progenitor cells (HSPCs), or the control locus AAVS1. FIGS. 40A and 40B show extended TERC forms in CRISPR-Cas9 engineered HSPCs deficient in PARN.

rPAPD5 = biological target: T1, rPAPD5 (Homo sapiens, UniProt Q8NDF8); test: differential scanning fluorimetry (DSF) binding and stabilization of rPAPD5; settings: for ΔTm at 1 µM: read-out: ΔTm at 1 μM; for ΔTm at 100 µM: 100 μM test compound, read-out: ΔTm at 100 μM
T1 construct: made in house
T1 sequence (Q8NDF8 68-698 isoform Q8NDF8-5 limits assumed): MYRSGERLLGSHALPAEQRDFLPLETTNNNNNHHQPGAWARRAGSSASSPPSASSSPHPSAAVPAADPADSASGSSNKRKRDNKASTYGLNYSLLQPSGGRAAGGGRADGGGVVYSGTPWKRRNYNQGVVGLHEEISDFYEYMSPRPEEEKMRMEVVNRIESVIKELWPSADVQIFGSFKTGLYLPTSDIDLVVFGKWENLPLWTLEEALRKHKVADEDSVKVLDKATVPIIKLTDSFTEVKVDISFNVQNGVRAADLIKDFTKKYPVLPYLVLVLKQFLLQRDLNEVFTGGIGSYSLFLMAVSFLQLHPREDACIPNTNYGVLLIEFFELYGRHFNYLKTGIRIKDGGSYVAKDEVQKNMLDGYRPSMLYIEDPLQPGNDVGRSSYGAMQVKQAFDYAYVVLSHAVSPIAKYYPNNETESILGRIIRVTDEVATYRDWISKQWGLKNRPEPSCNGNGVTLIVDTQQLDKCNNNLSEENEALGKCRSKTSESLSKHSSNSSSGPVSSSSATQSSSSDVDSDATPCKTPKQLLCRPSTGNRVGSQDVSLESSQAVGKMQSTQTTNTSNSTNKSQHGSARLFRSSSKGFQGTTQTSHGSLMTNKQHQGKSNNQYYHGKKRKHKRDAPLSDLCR
Procedure, shortened: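 Differential scanning fluorimetry was used to measure how test compounds bind and thermally stabilize rPAPD5. The reaction contained SYPRO orange dye diluted 1:5000 in […] of buffer with […], 25 mM Tris-HCl, 5 mM MgCl2 and 50 mM KCl. ΔTm was calculated relative to a DMSO control.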

[3] = tested on: telomere length in DC patient iPSCs; test: telomere length / telomere elongation in DC patient iPSCs; format: cell-based, human; settings: Homo sapiens, iPSC, read-out: iPSC-based Telomere length
Experimental: Compound 266A had activity ˜2-logs higher in the in vitro RNA oligoadenylation assay compared to the parental compound cmpd. 1, approximating the activity of RG7834 (FIG. 7). […] 1. Compounds 295A and 296A had activity 2-3 logs higher in DC patient iPSCs, showing TERC maturation at 1 nM, similar to RG7834 (FIG. 6). […] Referring to Table 1D, “+” refers to activity at 1 μM, “++” refers to activity above 1 nM and below 1 μM, and “+++” refers to activity at <1 nM, “ND” refers to not determined.

[4] = tested on: hepatitis B surface antigen (HBSAg) from HepG2.2.15 cells, a hepatitis B virus-expressing cell line; test: HBsAg ELISA in supernatant of HepG2.2.15 cells; format: cell-based; settings: HepG2.2.15, 96 h
Experimental: HepG2.2.15 cells, a hepatitis B virus-expressing cell line (Sells, M. A. et al., PNAS, 1987), were plated at 50,000 cells/well in DMEM/F12 media (Gibco) with 10% fetal bovine serum (Omega Scientific) in a 24-well or 96-well plate (Corning), in 2-3 replicates for each test compound/concentration plus controls, and incubated in a humidified 5% CO2 chamber at 37° C. The next day, media was aspirated, cells were washed once with phosphate buffered saline, pH7.4 (Gibco), and 1 mL DMEM/12 media was replaced. Test compounds were added in 3-fold dilutions from up to 100 μM down to 333 pM, with vehicle (dimethylsulfoxide (Sigma)) as a control. After four days of culture in a humidified 5% CO2 chamber at 37° C., plates were spun down in a centrifuge at 300 g for 10 minutes at room temperature. Supernatant from each well was collected and either frozen at −20° C. or used directly for quantitation of hepatitis B surface antigen (HBSAg) in an enzyme-linked immunosorbent assay (ELISA). The supernatant was tested using the HBSAg ELISA kit (Abnova Cat. No KA0286) per the manufacturer's instructions. Results of replicates were averaged and nonlinear curve fitting was used to determine the half maximal inhibitory concentration (IC50) for each test compound.

[5] = patient iPSCs, concentration class at which activity is seen
[6] = 10 μM test compound (Table 2a), read-out: ΔTm at 10 μM
[7] = 10 μM test compound, shift vs DMSO control, read-out: ΔTm (Table 2, starred: the compound was tested at 10 μM)

| SMILES | minimal effective concentration [1, 5] | TERC 3′ end processing by RACE at 100 nM [2] | TERC 3′ end processing by RACE at 1 μM [2] | ΔTm at 1 µM (rPAPD5; 1 μM test compound (Table 2a)) | ΔTm at 10 µM (rPAPD5; [6]) | ΔTm at 10 µM (rPAPD5; [7]) | minimal effective concentration [3, 5] | IC50 [4] | ΔTm at 100 µM (rPAPD5; shift vs DMSO control) | minimal effective concentration [1] | ΔTm at 10 µM (rPAPD5; read-out: ΔTm (Table 2, starred: the compound was tested at 10 μM)) | ΔTm at 1 µM (rPAPD5) | ΔTm at 10 µM (rPAPD5; read-out: ΔTm at 10 μM) | minimal effective concentration [3] |
| --- | --- | --- | --- | --- | --- | --- | --- | --- | --- | --- | --- | --- | --- | --- |
| O=C(O)c1cc(Cl)ccc1Nc1c(N2CCC(F)(F)CC2)cnc2ccc(Cl)cc12 [Compound 340A, 5-chloro-2-[[6-chloro-3-(4,4-difluoro-1-piperidyl)-4-quinolyl]amino]benzoic acid] | < 0.001 µM | maturation of TERC 3′ end processing | maturation of TERC 3′ end processing | > 5 °C | > 5 °C | > 5 °C | < 0.001 µM | 0.05 µM | – | – | – | – | – | – |
| O=C(O)c1cc(Cl)ccc1Nc1c(C2=CCSCC2)cnc2ccc(Cl)cc12 [Compound 342A, 5-chloro-2-[[6-chloro-3-(3,6-dihydro-2H-thiopyran-4-yl)-4-quinolyl]amino]benzoic acid] | < 0.001 µM | – | – | > 5 °C | > 5 °C | > 5 °C | < 0.001 µM | 0.821 µM | – | – | – | – | – | – |
| O=C(O)c1cc(Cl)ccc1Nc1c(C2CCC(F)(F)CC2)cnc2ccc(Cl)cc12 [Compound 343A, 5-chloro-2-[[6-chloro-3-(4,4-difluorocyclohexyl)-4-quinolyl]amino]benzoic acid] | < 0.001 µM | – | – | > 5 °C | > 5 °C | > 5 °C | < 0.001 µM | 0.086 µM | – | – | – | – | – | – |
| O=C(O)c1cc(Cl)ccc1Nc1c(S(=O)(=O)N2CCC(F)(F)CC2)cnc2ccc(Cl)cc12 [Compound 345A, 5-chloro-2-[[6-chloro-3-[(4,4-difluoro-1-piperidyl)sulfonyl]-4-quinolyl]amino]benzoic acid] | 0.001 to 1 µM | – | – | > 5 °C | > 5 °C | – | < 0.001 µM | 0.523 µM | > 5 °C | – | – | – | – | – |
| O=C(O)c1cc(Cl)ccc1Nc1c(S(=O)(=O)N2CCSCC2)cnc2ccc(Cl)cc12 [Compound 349A, 5-chloro-2-[(6-chloro-3-thiomorpholinosulfonyl-4-quinolyl)amino]benzoic acid] | 0.001 to 1 µM | – | – | > 5 °C | > 5 °C | – | < 0.001 µM | 0.16 µM | > 5 °C | – | – | – | – | – |
| O=C(O)c1cc(Cl)ccc1Nc1c(-c2cnco2)cnc2ccc(Cl)cc12 [Compound 353A, 5-chloro-2-[(6-chloro-3-oxazol-5-yl-4-quinolyl)amino]benzoic acid] | 0.001 to 1 µM | – | – | 1 to 5 °C | > 5 °C | – | < 0.001 µM | 0.438 µM | > 5 °C | – | – | – | – | – |
| CN1CCN(c2cnc3ccc(Cl)cc3c2Nc2ccc(Cl)cc2C(=O)O)CC1 [Compound 361A, 5-chloro-2-[[6-chloro-3-(4-methylpiperazin-1-yl)-4-quinolyl]amino]benzoic acid] | 0.001 to 1 µM | – | – | > 5 °C | > 5 °C | – | < 0.001 µM | 0.311 µM | > 5 °C | – | – | – | – | – |
| O=C(O)c1cc(Cl)ccc1Nc1c(CN2CCOCC2)cnc2ccc(Cl)cc12 [Compound 371A, 5-chloro-2-[[6-chloro-3-(morpholinomethyl)-4-quinolyl]amino]benzoic acid] | 0.001 to 1 µM | maturation of TERC 3′ end processing | maturation of TERC 3′ end processing | > 5 °C | > 5 °C | – | < 0.001 µM | 0.145 µM | > 5 °C | – | – | – | – | – |
| O=C(O)c1cc(Cl)ccc1Nc1c(-c2ccncc2)cnc2ccc(Cl)cc12 [Compound 391A, 5-chloro-2-[[6-chloro-3-(4-pyridyl)-4-quinolyl]amino]benzoic acid] | 0.001 to 1 µM | – | – | 1 to 5 °C | > 5 °C | – | < 0.001 µM | 0.735 µM | > 5 °C | – | – | – | – | – |
| O=C(O)c1cc(Cl)ccc1Nc1c(N2CCC(Cl)CC2)cnc2ccc(Cl)cc12 [Compound 393A, 5-chloro-2-((6-chloro-3-(4-chloropiperidin-1-yl)quinolin-4-yl)amino)benzoic acid] | < 0.001 µM | maturation of TERC 3′ end processing | – | > 5 °C | > 5 °C | > 5 °C | < 0.001 µM | 0.282 µM | – | – | – | – | – | – |
| O=C(O)c1cc(Cl)ccc1Nc1c(C2CCC(=NO)CC2)cnc2ccc(Cl)cc12 (stereo not drawn) [Compound 396A, 5-chloro-2-[[6-chloro-3-(4-hydroxyiminocyclohexyl)-4-quinolyl]amino]benzoic acid] | < 0.001 µM | maturation of TERC 3′ end processing | maturation of TERC 3′ end processing | < 1 °C | > 5 °C | – | < 0.001 µM | – | > 5 °C | – | – | – | – | – |
| O=C1CCC(c2cnc3ccc(Cl)cc3c2Nc2ccc(Cl)cc2C(=O)O)CC1 [Compound 404A, 5-chloro-2-[[6-chloro-3-(4-oxocyclohexyl)-4-quinolyl]amino]benzoic acid] | < 0.001 µM | maturation of TERC 3′ end processing | – | > 5 °C | > 5 °C | > 5 °C | < 0.001 µM | 0.035 µM | – | – | – | – | – | – |
| Cc1cc(Cl)cc2c(Nc3ccc(Cl)cc3C(=O)O)c(S(=O)(=O)N3CCSCC3)cnc12 [Compound 417A, 5-chloro-2-[(6-chloro-8-methyl-3-thiomorpholinosulfonyl-4-quinolyl)amino]benzoic acid] | – | – | maturation of TERC 3′ end processing | – | – | – | – | 0.071 µM | – | < 0.001 µM | > 5 °C | > 5 °C | > 5 °C | < 0.001 µM |
| COc1cc(Cl)cc2c(Nc3ccc(Cl)cc3C(=O)O)c(S(=O)(=O)N3CCSCC3)cnc12 [Compound 418A, 5-chloro-2-[(6-chloro-8-methoxy-3-thiomorpholinosulfonyl-4-quinolyl)amino]benzoic acid] | < 0.001 µM | – | – | > 5 °C | > 5 °C | – | < 0.001 µM | 0.112 µM | > 5 °C | – | – | – | – | – |
| O=C(O)c1cc(Cl)ccc1Nc1c(S(=O)(=O)N2CCSCC2)cnc2c(Cl)cc(Cl)cc12 [Compound 420A, 5-chloro-2-[(6,8-dichloro-3-thiomorpholinosulfonyl-4-quinolyl)amino]benzoic acid] | < 0.001 µM | – | maturation of TERC 3′ end processing | > 5 °C | > 5 °C | > 5 °C | < 0.001 µM | 0.1 µM | – | – | – | – | – | – |
| O=C(O)c1cc(Cl)ccc1Nc1c(S(=O)(=O)N2CCSCC2)cnc2c(F)cc(Cl)cc12 [Compound 421A, 5-chloro-2-[(6-chloro-8-fluoro-3-thiomorpholinosulfonyl-4-quinolyl)amino]benzoic acid] | < 0.001 µM | – | maturation of TERC 3′ end processing | > 5 °C | > 5 °C | – | < 0.001 µM | – | > 5 °C | – | – | – | – | – |
